PubChem BioAssay AID2060484 (Molecular Pharmacology Branch, DTP, NCI, 2025)

Test system: SUM149PT spheroids with HUVEC/MSC, viability
Test: Anticancer human tumor SUM149PT cell line growth inhibition [GQUAD];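 further: spheroids exposed to drugs for seven days before readout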;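 on viability, T/C: percent viability relative to DMSO vehicle control taken as 100%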
Details: for IC50: curve of first compound; for viability, T/C: stronger effect = lower value; active means viability on the fitted dose curve at most 10% of control; inactive means the rest
Outline: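 Multi-cell-type spheroids of tumor cells with HUVEC and mesenchymal stem cells, treated with drug combinations. Concentrations descend in half-log steps from near clinical Cmax, or from 10 microM where Cmax is unknown; viability read-out.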

[1] = second compound 0.0316 µM, first compound 0.0316 µM
[2] = second compound 0.0316 µM, first compound 0.1 µM
[3] = second compound 0.0316 µM, first compound 0.316 µM
[4] = second compound 0.0316 µM, first compound 1 µM
[5] = second compound 0.0316 µM, first compound 3.16 µM
[6] = second compound 0.0316 µM, first compound 10 µM
[7] = second compound 0.1 µM, first compound 0.0316 µM
[8] = second compound 0.1 µM, first compound 0.1 µM
[9] = second compound 0.1 µM, first compound 0.316 µM
[10] = second compound 0.1 µM, first compound 1 µM
[11] = second compound 0.1 µM, first compound 3.16 µM
[12] = second compound 0.1 µM, first compound 10 µM
[13] = second compound 0.316 µM, first compound 0.0316 µM
[14] = second compound 0.316 µM, first compound 0.1 µM
[15] = second compound 0.316 µM, first compound 0.316 µM
[16] = second compound 0.316 µM, first compound 1 µM
[17] = second compound 0.316 µM, first compound 3.16 µM
[18] = second compound 0.316 µM, first compound 10 µM
[19] = second compound 1 µM, first compound 0.0316 µM
[20] = second compound 1 µM, first compound 0.1 µM
[21] = second compound 1 µM, first compound 0.316 µM
[22] = second compound 1 µM, first compound 1 µM
[23] = second compound 1 µM, first compound 3.16 µM
[24] = second compound 1 µM, first compound 10 µM
[25] = second compound 3.16 µM, first compound 0.0316 µM
[26] = second compound 3.16 µM, first compound 0.1 µM
[27] = second compound 3.16 µM, first compound 0.316 µM
[28] = second compound 3.16 µM, first compound 1 µM
[29] = second compound 3.16 µM, first compound 3.16 µM
[30] = second compound 3.16 µM, first compound 10 µM
[31] = second compound 10 µM, first compound 0.0316 µM
[32] = second compound 10 µM, first compound 0.1 µM
[33] = second compound 10 µM, first compound 0.316 µM
[34] = second compound 10 µM, first compound 1 µM
[35] = second compound 10 µM, first compound 3.16 µM
[36] = second compound 10 µM, first compound 10 µM

CC(C)n1c(=O)n(C)c2cnc3cc(F)c(-c4ccc(OCCCN5CCCCC5)nc4)cc3c21 + Cc1cnc(CNC(=O)c2c(=O)c3ccc(N4CCCN(C)CC4)nc3n3c2sc2ccccc23)cn1
inactive: viability, T/C [1] 56.4% | viability, T/C [2] 51.5% | viability, T/C [3] 55.8% | viability, T/C [4] 59% | viability, T/C [5] 59.9% | viability, T/C [6] 48.9% | viability, T/C [7] 55% | viability, T/C [8] 55.5% | viability, T/C [9] 52.6% | viability, T/C [10] 60.2% | viability, T/C [11] 64.7% | viability, T/C [12] 46.2% | viability, T/C [13] 52% | viability, T/C [14] 57% | viability, T/C [15] 52.2% | viability, T/C [16] 50.9% | viability, T/C [17] 54.1% | viability, T/C [18] 35.5% | viability, T/C [19] 39.6% | viability, T/C [20] 44.3% | viability, T/C [21] 48.4% | viability, T/C [22] 46.4% | viability, T/C [23] 48.8% | viability, T/C [24] 32.9% | viability, T/C [25] 37.7% | viability, T/C [26] 41.1% | viability, T/C [27] 42% | viability, T/C [28] 43.5% | viability, T/C [29] 39.9% | viability, T/C [30] 31.5% | viability, T/C [31] 0.24% | viability, T/C [32] 8.78% | viability, T/C [33] 32.2% | viability, T/C [34] 23% | viability, T/C [35] 1.78% | viability, T/C [36] 1.16%
3880 nM: IC50 (second compound 0.316 µM)
< 31.6 nM: IC50 (second compound 1 µM) | IC50 (second compound 3.16 µM) | IC50 (second compound 10 µM)
> 10000 nM: IC50 (second compound 0.0316 µM) | IC50 (second compound 0.1 µM)

CC1COCCN1c1cc(-c2ccnn2C)c2ccnc(-c3ccn[nH]3)c2n1 (stereo not given) + Cc1cnc(CNC(=O)c2c(=O)c3ccc(N4CCCN(C)CC4)nc3n3c2sc2ccccc23)cn1
active: viability, T/C [31] 0.11% | viability, T/C [32] 0.15% | viability, T/C [33] 0.93% | viability, T/C [34] 1.21% | viability, T/C [35] 1.74% | viability, T/C [36] 0.18%
inactive: viability, T/C [1] 14.7% | viability, T/C [2] 12.5% | viability, T/C [3] 18.1% | viability, T/C [4] 18.2% | viability, T/C [5] 20.6% | viability, T/C [6] 19.2% | viability, T/C [7] 17.1% | viability, T/C [8] 19.6% | viability, T/C [9] 18.7% | viability, T/C [10] 20.3% | viability, T/C [11] 20.3% | viability, T/C [12] 20.4% | viability, T/C [13] 21.1% | viability, T/C [14] 20.5% | viability, T/C [15] 24.3% | viability, T/C [16] 20.3% | viability, T/C [17] 21.9% | viability, T/C [18] 18.4% | viability, T/C [19] 21.4% | viability, T/C [20] 23.1% | viability, T/C [21] 26.4% | viability, T/C [22] 21.5% | viability, T/C [23] 20.7% | viability, T/C [24] 17.5% | viability, T/C [25] 25.9% | viability, T/C [26] 23.6% | viability, T/C [27] 24.2% | viability, T/C [28] 20.8% | viability, T/C [29] 18.8% | viability, T/C [30] 15.9%
< 31.6 nM: IC50 (second compound 0.0316 µM) | IC50 (second compound 0.1 µM) | IC50 (second compound 0.316 µM) | IC50 (second compound 1 µM) | IC50 (second compound 3.16 µM) | IC50 (second compound 10 µM)

CC1COCCN1c1cc(C2(O)CC3CCC(C2)O3)c2cnn(-c3ccn[nH]3)c2n1 (stereo not given) + Cc1cnc(CNC(=O)c2c(=O)c3ccc(N4CCCN(C)CC4)nc3n3c2sc2ccccc23)cn1
active: viability, T/C [31] 0.11% | viability, T/C [32] 1.32% | viability, T/C [33] 1.05% | viability, T/C [34] 1.13% | viability, T/C [35] 1.57% | viability, T/C [36] 0.19%
inactive: viability, T/C [1] 18.1% | viability, T/C [2] 15.6% | viability, T/C [3] 18.9% | viability, T/C [4] 17.3% | viability, T/C [5] 19.6% | viability, T/C [6] 15.7% | viability, T/C [7] 19.2% | viability, T/C [8] 18.7% | viability, T/C [9] 19.7% | viability, T/C [10] 18.3% | viability, T/C [11] 17.6% | viability, T/C [12] 14.8% | viability, T/C [13] 19.4% | viability, T/C [14] 21.5% | viability, T/C [15] 22% | viability, T/C [16] 18.2% | viability, T/C [17] 17.9% | viability, T/C [18] 12.6% | viability, T/C [19] 21.8% | viability, T/C [20] 23.7% | viability, T/C [21] 21.4% | viability, T/C [22] 17.4% | viability, T/C [23] 15.7% | viability, T/C [24] 12.9% | viability, T/C [25] 23% | viability, T/C [26] 22.9% | viability, T/C [27] 21.1% | viability, T/C [28] 16% | viability, T/C [29] 14.7% | viability, T/C [30] 11%
< 31.6 nM: IC50 (second compound 0.0316 µM) | IC50 (second compound 0.1 µM) | IC50 (second compound 0.316 µM) | IC50 (second compound 1 µM) | IC50 (second compound 3.16 µM) | IC50 (second compound 10 µM)

CC1COCCN1c1cc(C2(S(C)(=N)=O)CC2)nc(-c2ccnc3[nH]ccc23)n1 (stereo not given) + Cc1cnc(CNC(=O)c2c(=O)c3ccc(N4CCCN(C)CC4)nc3n3c2sc2ccccc23)cn1
249 nM: IC50 (second compound 0.0316 µM)
active: viability, T/C [31] 0.72% | viability, T/C [32] 0.21% | viability, T/C [33] 0.33% | viability, T/C [34] 0.28% | viability, T/C [35] 0.77% | viability, T/C [36] 1.29%
97.9 nM: IC50 (second compound 0.316 µM)
< 31.6 nM: IC50 (second compound 1 µM) | IC50 (second compound 3.16 µM) | IC50 (second compound 10 µM)
164 nM: IC50 (second compound 0.1 µM)
inactive: viability, T/C [1] 87% | viability, T/C [2] 71.1% | viability, T/C [3] 44.9% | viability, T/C [4] 25.8% | viability, T/C [5] 31.5% | viability, T/C [6] 17.7% | viability, T/C [7] 59.8% | viability, T/C [8] 57.9% | viability, T/C [9] 38.6% | viability, T/C [10] 23.7% | viability, T/C [11] 36% | viability, T/C [12] 17.9% | viability, T/C [13] 57.3% | viability, T/C [14] 48.9% | viability, T/C [15] 41.4% | viability, T/C [16] 27.2% | viability, T/C [17] 29.2% | viability, T/C [18] 22.5% | viability, T/C [19] 45.9% | viability, T/C [20] 46% | viability, T/C [21] 42.9% | viability, T/C [22] 31.8% | viability, T/C [23] 37.1% | viability, T/C [24] 21.3% | viability, T/C [25] 36.9% | viability, T/C [26] 37.7% | viability, T/C [27] 36.2% | viability, T/C [28] 31.1% | viability, T/C [29] 33.7% | viability, T/C [30] 20.4%

COc1ccc([C@@H](O)c2cc(-c3ncnc4cc(N5CCOCC5)ccc34)c(F)cc2Cl)nn1 + Cc1cnc(CNC(=O)c2c(=O)c3ccc(N4CCCN(C)CC4)nc3n3c2sc2ccccc23)cn1
61.1 nM: IC50 (second compound 0.316 µM)
142 nM: IC50 (second compound 0.1 µM)
385 nM: IC50 (second compound 0.0316 µM)
inactive: viability, T/C [1] 88.4% | viability, T/C [2] 68.2% | viability, T/C [3] 55.8% | viability, T/C [4] 35.8% | viability, T/C [5] 24.5% | viability, T/C [6] 18.5% | viability, T/C [7] 65.8% | viability, T/C [8] 51.8% | viability, T/C [9] 44.1% | viability, T/C [10] 25.5% | viability, T/C [11] 21.5% | viability, T/C [12] 16.3% | viability, T/C [13] 53% | viability, T/C [14] 48.2% | viability, T/C [15] 36% | viability, T/C [16] 24.5% | viability, T/C [17] 19.2% | viability, T/C [18] 14.8% | viability, T/C [19] 43.4% | viability, T/C [20] 38.9% | viability, T/C [21] 35.4% | viability, T/C [22] 23.2% | viability, T/C [23] 19.6% | viability, T/C [24] 15.7% | viability, T/C [25] 34.5% | viability, T/C [26] 34.1% | viability, T/C [27] 29.4% | viability, T/C [28] 20.7% | viability, T/C [29] 17.6% | viability, T/C [30] 13.3%
active: viability, T/C [31] 0.17% | viability, T/C [32] 1.03% | viability, T/C [33] 0.2% | viability, T/C [34] 0.32% | viability, T/C [35] 1.7% | viability, T/C [36] 1.3%
< 31.6 nM: IC50 (second compound 1 µM) | IC50 (second compound 3.16 µM) | IC50 (second compound 10 µM)
